IC50 data for 16 compounds are collected here from patent US20240043439A1, “COMPOUNDS AS C5AR INHIBITORS” (Kira Pharmaceuticals (Suzhou) Ltd., priority 2020, published 2024).

Assay [1] has as its target human C5a receptor (C5aR) (Homo sapiens (Human), UniProt P21730). The assay is described as follows: Inhibition of C5a-C5aR binding (biotinylated human C5a, U937/C5aR cells, FACS). Here is the method:
U937 cells were originally obtained from the American Type Culture Collection (ATCC) and transfected with human C5a receptor (C5aR). U937/C5aR cells were cultured at 37° C., 5% CO2 in RPMI1640 (Gibco) supplemented with 10% FBS (Gibco) and 350 µg/ml Geneticin (Gibco) and passaged every 3 days to maintain the density range from […] to 2×10^6 cells/ml.
Human C5a biotinylation was performed according to the procedure provided by manufacturer (Thermo Scientific, A39257). 10 mM solution of Sulfo-NHS-LC-Biotin was prepared by adding 180μl ultrapure H2O to the 1 mg vial immediately. 12 μl 10 mM biotin reagent was added to […] human C5a solution, gently pipetted for 3 seconds, and incubated on ice for 2 hours. Amicon ultra-0.5 centrifuge filter device (Millipore, UFC5003BK) was pre-rinsed with Milli-Q H2O, centrifuged at 14000 g for 5 min immediately before use. Up to […] sample (diluted by PBS) was added to the device and capped. The device was spinned at 14000 g for approximately 5 min. 250 μl PBS was added to the filter device, spinned at 14000 g for 5 min, and repeatedly washed 6 times. The filter device was separated from the microcentrifuge tube and placed upside down in a clean microcentrifuge tube, spinned for 2 min at 1000 g to transfer the concentrated sample from the device to the tube.
U937/C5aR cells were collected and washed twice by PBS, cells were suspended in PBS+0.1% BSA buffer at the density of 3×10^6 cells/ml. 100 μl cell suspension was added to a 96 well microplate. 50 μl compound diluted in assay buffer and 50 μl biotinylated ligand human C5a (30 nM) were added to corresponding wells in order and the plate was incubated on ice for 120 min and then centrifuged at 1000 rpm for 3-5 min at 4° C. Supernatant was removed and cells were washed by pre-cold PBS twice. 100 μl FITC conjugated streptavidin was added to cells, incubated on ice for another 30 min, and then centrifuged at 1000 rpm for 3-5 min at 4° C. Supernatant was removed and cells were washed by pre-cold PBS twice. 150 μl PBS was added to suspend the cells and signals were detected by FACS (Beckman, Cytoflex).

The next assay has as its target C5aR (Homo sapiens (Human), UniProt P21730). The assay is described as follows: Calcium mobilization (U937/C5aR or HEK293/C5aR cells, FLIPR). The settings on record: agonist human C5a at EC80, FLIPR. In kind it is cell-based. Here is the method: U937/C5aR cells or HEK293/C5aR cells were washed by PBS and suspended in growth media at the density of 1×10^6 cells/ml. […] to the 384-well plate and culture for overnight. Transfer 250 nl compound solution to the cell plate using Echo, incubate for 60 min. Cells were added with Fluo-4 Direct™ dye and incubate for 50 min at 37° C. 5% CO2 and 10 m at room temperature. Place the cell plate into […] (Molecular Devices). Transfer 10 μl of 5-fold EC80 concentrations of agonist human C5a to the cell plates.

Sequence of C5aR (P21730 whole entry): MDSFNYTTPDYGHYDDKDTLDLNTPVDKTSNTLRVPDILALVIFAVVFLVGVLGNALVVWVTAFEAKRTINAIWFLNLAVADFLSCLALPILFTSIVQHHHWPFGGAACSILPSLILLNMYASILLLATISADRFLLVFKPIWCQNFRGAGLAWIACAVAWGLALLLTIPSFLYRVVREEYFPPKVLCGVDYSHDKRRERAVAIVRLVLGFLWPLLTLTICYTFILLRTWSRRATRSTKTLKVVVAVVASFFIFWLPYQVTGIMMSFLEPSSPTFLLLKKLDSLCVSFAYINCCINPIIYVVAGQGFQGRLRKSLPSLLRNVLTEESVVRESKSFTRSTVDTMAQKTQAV
Sequence of human C5a receptor (C5aR) (P21730 whole entry): as above

For `Cc1cccc(F)c1C(=O)N1C2CCC[C@@H]2C[C@H](C(=O)Nc2cccc(F)c2)[C@@H]1c1ccc(NC2CCCC2)cc1` (mixture of isomers) [Compound 56, cis-2-(4-(cyclopentylamino)phenyl)-1-(2-fluoro-6-methylbenzoyl)-N-(3-fluorophenyl)octahydro-1H-cyclopenta[b]pyridine-3-carboxamide], the results for the IC50 (in assay [1]; on C5aR) were less than 50 nM and 50 to 500 nM, respectively.

On to `Cc1cccc(F)c1C(=O)N1C2CCC[C@@H]2C[C@H](C(=O)Nc2ccc3ncn(C)c3c2)[C@@H]1c1ccc(NC2CCCC2)cc1` (mixture of isomers) [Compound 74, cis-2-(4-(cyclopentylamino)phenyl)-1-(2-fluoro-6-methylbenzoyl)-N-(1-methyl-1H-benzo[d]imidazol-6-yl)octahydro-1H-cyclopenta[b]pyridine-3-carboxamide], for which the IC50 is 2000 to 5000 nM in assay [1] and greater than 10000 nM at C5aR.

Turning to `Cc1ccc(NC(=O)[C@H]2C[C@H]3COCC3N(C(=O)c3c(C)cccc3F)[C@H]2c2ccc(NC3CCOCC3)cc2)cc1C(F)(F)F` (mixture of isomers) [Compound 135, cis-1-(2-fluoro-6-methylbenzoyl)-N-(4-methyl-3-(trifluoromethyl)phenyl)-2-(4-((tetrahydro-2H-pyran-4-yl)amino)phenyl)octahydrofuro[3,4-b]pyridine-3-carboxamide], the IC50 is 50 to 500 nM in assay [1] and 500 to 2000 nM on C5aR.

As to `Cc1cccc(F)c1C(=O)N1C2COC[C@@H]2C[C@H](C(=O)Nc2ccc(N(C)C)cc2)[C@@H]1c1ccc(NC2CCOCC2)cc1` (mixture of isomers) [Compound 136, cis-N-(4-(dimethylamino)phenyl)-1-(2-fluoro-6-methylbenzoyl)-2-(4-((tetrahydro-2H-pyran-4-yl)amino)phenyl)octahydrofuro[3,4-b]pyridine-3-carboxamide], the IC50 in assay [1] lay in the range of 2000 to 5000 nM; on C5aR, 2000 to 10000 nM.

For the compound `Cc1ncc(NC(=O)[C@H]2C[C@H]3CCC[C@H]3N(C(=O)c3c(C)cccc3F)[C@H]2c2ccc(NC3CCCC3)cc2)cn1` (racemic) [Compound 58, cis-2-(4-(cyclopentylamino)phenyl)-1-(2-fluoro-6-methylbenzoyl)-N-(2-methylpyrimidin-5-yl)octahydro-1H-cyclopenta[b]pyridine-3-carboxamide], the IC50 (in assay [1]; on C5aR) was 50 to 500 nM each time.

For `Cc1cccc(F)c1C(=O)N1[C@@H]2CCC[C@@H]2C[C@H](C(=O)Nc2ccc(Cl)c(C(F)(F)F)c2)[C@@H]1c1ccc(NC2CCCC2)cc1` (racemic) [Compound 60, cis-N-(4-chloro-3-(trifluoromethyl)phenyl)-2-(4-(cyclopentylamino)phenyl)-1-(2-fluoro-6-methylbenzoyl)octahydro-1H-cyclopenta[b]pyridine-3-carboxamide], the IC50 in assay [1] fell in the range of 2000 to 5000 nM; at C5aR, 50 to 500 nM.

`Cc1cccc(F)c1C(=O)N1[C@@H]2CCC[C@@H]2C[C@H](C(=O)Nc2ccc3c(cnn3CCO)c2)[C@@H]1c1ccc(NC2CCOCC2)cc1` [Compound 102, (2R,3S,4aR,7aR)-1-(2-fluoro-6-methylbenzoyl)-N-(1-(2-hydroxyethyl)-1H-indazol-5-yl)-2-(4-((tetrahydro-2H-pyran-4-yl)amino)phenyl)octahydro-1H-cyclopenta[b]pyridine-3-carboxamide] yielded an IC50 in assay [1] of 2000 to 5000 nM.

`Cc1cccc(F)c1C(=O)N1[C@@H]2CCC[C@@H]2C[C@H](C(=O)Nc2ccc3c(cnn3CCN(C)C)c2)[C@@H]1c1ccc(NC2CCOCC2)cc1` [Compound 103, (2R,3S,4aR,7aR)-N-(1-(2-(dimethylamino)ethyl)-1H-indazol-5-yl)-1-(2-fluoro-6-methylbenzoyl)-2-(4-((tetrahydro-2H-pyran-4-yl)amino)phenyl)octahydro-1H-cyclopenta[b]pyridine-3-carboxamide] came in with an IC50 in assay [1] of 2000 to 5000 nM.

In assay [1], `Cc1cccc(F)c1C(=O)N1[C@@H]2CCC[C@@H]2C[C@H](C(=O)Nc2ccc3nn(CCO)cc3c2)[C@@H]1c1ccc(NC2CCOCC2)cc1` [Compound 104, (2R,3S,4aR,7aR)-1-(2-fluoro-6-methylbenzoyl)-N-(2-(2-hydroxyethyl)-2H-indazol-5-yl)-2-(4-((tetrahydro-2H-pyran-4-yl)amino)phenyl)octahydro-1H-cyclopenta[b]pyridine-3-carboxamide] had an IC50 of 2000 to 5000 nM.

As to `Cc1cccc(F)c1C(=O)N1[C@@H]2CCC[C@@H]2C[C@H](C(=O)Nc2ccc3nn(CCN(C)C)cc3c2)[C@@H]1c1ccc(NC2CCOCC2)cc1` [Compound 105, (2R,3S,4aR,7aR)-N-(2-(2-(dimethylamino)ethyl)-2H-indazol-5-yl)-1-(2-fluoro-6-methylbenzoyl)-2-(4-((tetrahydro-2H-pyran-4-yl)amino)phenyl)octahydro-1H-cyclopenta[b]pyridine-3-carboxamide], the IC50 in assay [1] lay within 2000 to 5000 nM.

Turning to `Cc1cccc(F)c1C(=O)N1[C@@H]2CCC[C@@H]2C[C@H](C(=O)Nc2ccc3c(cnn3Cc3cccnc3)c2)[C@@H]1c1ccc(NC2CCOCC2)cc1` [Compound 107, (2R,3S,4aR,7aR)-1-(2-fluoro-6-methylbenzoyl)-N-(1-(pyridin-3-ylmethyl)-1H-indazol-5-yl)-2-(4-((tetrahydro-2H-pyran-4-yl)amino)phenyl)octahydro-1H-cyclopenta[b]pyridine-3-carboxamide], in assay [1], the IC50 fell in the range of 2000 to 5000 nM.

Compound `Cc1cccc(F)c1C(=O)N1[C@@H]2CCC[C@@H]2C[C@H](C(=O)Nc2ccc3c(cnn3CCF)c2)[C@@H]1c1ccc(NC2CCOCC2)cc1` [Compound 109, (2R,3S,4aR,7aR)-1-(2-fluoro-6-methylbenzoyl)-N-(1-(2-fluoroethyl)-1H-indazol-5-yl)-2-(4-((tetrahydro-2H-pyran-4-yl)amino)phenyl)octahydro-1H-cyclopenta[b]pyridine-3-carboxamide] had an IC50 in assay [1] of 500 to 2000 nM.

For `Cc1cccc(F)c1C(=O)N1[C@@H]2COC[C@@H]2C[C@H](C(=O)Nc2ccc3cnn(C)c3c2)[C@@H]1c1ccc(NC2CCCC2)cc1` [Compound 122, (2R,3S,4aR,7aS)-2-(4-(cyclopentylamino)phenyl)-1-(2-fluoro-6-methylbenzoyl)-N-(1-methyl-1H-indazol-6-yl)octahydrofuro[3,4-b]pyridine-3-carboxamide], the IC50 in assay [1] is 2000 to 5000 nM.

In turn, `Cc1cccc(F)c1C(=O)N1[C@@H]2COC[C@@H]2C[C@H](C(=O)Nc2cnc3cnn(C)c3c2)[C@@H]1c1ccc(NC2CCCC2)cc1` [Compound 123, (2R,3S,4aR,7aS)-2-(4-(cyclopentylamino)phenyl)-1-(2-fluoro-6-methylbenzoyl)-N-(1-methyl-1H-pyrazolo[4,3-b]pyridin-6-yl)octahydrofuro[3,4-b]pyridine-3-carboxamide] yielded an IC50 in assay [1] of 50 to 500 nM.

Take `Cc1cccc(F)c1C(=O)N1[C@@H]2COC[C@@H]2C[C@H](C(=O)Nc2ccc3c(cnn3C)c2)[C@@H]1c1ccc(CN2CCOCC2(C)C)cc1` [Compound 142, (2R,3S,4aR,7aS)-2-(4-((3,3-dimethylmorpholino)methyl)phenyl)-1-(2-fluoro-6-methylbenzoyl)-N-(1-methyl-1H-indazol-5-yl)octahydrofuro[3,4-b]pyridine-3-carboxamide]: the half-inhibitory concentration (IC50) in assay [1] was in the range of 2000 to 5000 nM.

Compound `Cc1ccc(NC(=O)[C@H]2CCCN(C(=O)c3c(C)cccc3F)[C@H]2C2CCC3(CCOC3)CC2)cc1C(F)(F)F` (stereo partly drawn) [Compound 170, (2S,3S)-1-(2-fluoro-6-methylbenzoyl)-N-(4-methyl-3-(trifluoromethyl)phenyl)-2-(2-oxaspiro[4.5]decan-8-yl)piperidine-3-carboxamide] showed a concentration for half-maximal inhibition (IC50) in assay [1] of 500 to 2000 nM.
